Patent US4521408A, “Antibiotics-859A and production thereof” (priority 1982, dated 1985)

Assays:
Format in all cases: cell-based
[1] = test system: Pseudomonas clinical isolate B145; assay: Comparative lethality in agar dilution test, isolate B145
Experimental: (§1) 859A2, carbenicillin, and gentamicin were compared in agar dilution, surface-inoculated assays at the minimum bactericidal concentration (MBC), and at 1/2 and 1/4 of the MBC, vs four clinical isolates of Pseudomonas.
(§2) Clinical isolates were supplied on nutrient agar-yeast extract slants. Strains B145 and B184 were reported as non-lactamase-containing strains whereas strains B126 and B189 contained lactamase.
(§3) A loopful of cells of each culture was transferred to 10 ml nutrient broth-yeast (NBY) extract and incubated for 16 hours at 37° C. on the shaker. The inocula were adjusted to O.D.=0.22 at 660 nm with NBY and further diluted with NBY to 1:250,000. One tenth (0.1) ml of the diluted cell suspension was added to plates containing 10 ml of Brain Heart Infusion Agar and spread uniformly over the surface with a sterile glass "hockey stick". Stock solutions of antibiotics at 10 mg/ml were added to 45° C. agar in appropriate amounts. […] After overnight incubation of plates at 37° C., a visual count of colonies was made.

[2] = test system: Pseudomonas clinical isolate B184; assay: Comparative lethality in agar dilution test, isolate B184
Experimental: as §1, §2, §3

[3] = test system: Pseudomonas clinical isolate B189; assay: Comparative lethality in agar dilution test, isolate B189
Experimental: as §1, §2, §3

[4] = test system: Pseudomonas clinical isolate B126; assay: Comparative lethality in agar dilution test, isolate B126
Experimental: as §1, §2, §3

Compound: CC1(C)S[C@@H]2[C@H](NC(=O)C(C(=O)O)c3ccccc3)C(=O)N2[C@H]1C(=O)O (stereo partly drawn) [Carbenicillin, carbenicillin]
- # of Colonies ([1]; 15.7 μg/ml): 368
- # of Colonies ([1]; 31.3 μg/ml): 335
- # of Colonies ([1]; 62.5 μg/ml): 0
- # of Colonies ([2]; 15.7 μg/ml): 75
- # of Colonies ([2]; 31.3 μg/ml): 100
- # of Colonies ([2]; 62.5 μg/ml): 0
- # of Colonies ([3]; 31.3 μg/ml): 333
- # of Colonies ([3]; 62.5 μg/ml): 263
- # of Colonies ([3]; 125 μg/ml): 0
- # of Colonies ([4]; 125 μg/ml): 68
- # of Colonies ([4]; 250 μg/ml): 28
- # of Colonies ([4]; 500 μg/ml): 0

Compound: gentamicin
- # of Colonies ([1]; 12.5 μg/ml): 233
- # of Colonies ([1]; 25 μg/ml): 121
- # of Colonies ([1]; 50 μg/ml): 0
- # of Colonies ([2]; 0.39 μg/ml): 79
- # of Colonies ([2]; 0.79 μg/ml): 19
- # of Colonies ([2]; 1.56 μg/ml): 0
- # of Colonies ([3]; 0.78 μg/ml): 278
- # of Colonies ([3]; 1.56 μg/ml): 53
- # of Colonies ([3]; 3.12 μg/ml): 0
- # of Colonies ([4]; 0.39 μg/ml): 49
- # of Colonies ([4]; 0.78 μg/ml): 7
- # of Colonies ([4]; 1.56 μg/ml): 0
